Assay results: patent US8592419B2, “Ceramides and apoptosis-signaling ligand” (MUSC Foundation for Research Development, priority 2004, dated 2013)
Where a SMILES comes first, the peptide text is derived from it. [ ]: non-standard residue; d: D form. The star is where a group is joined. Sta = CC(C)C[C@H](N)[C@@H](O)CC(=O)O; Isovaleryl = CC(C)CC(=O)*; Cbz = O=C(OCc1ccccc1)*; CH2F = FC*

Tests used:
acid ceramidase (AC) = molecular target: T1, acid ceramidase (AC) (Homo sapiens, UniProt Q13510); test: Immunoblot of acid ceramidase protein; assay type: cell-based; details: DU145 cells, one hour pretreatment, then LCL204 10 μM 6 hours
T1 construct: endogenous in cells
T1 sequence (Q13510 22-395): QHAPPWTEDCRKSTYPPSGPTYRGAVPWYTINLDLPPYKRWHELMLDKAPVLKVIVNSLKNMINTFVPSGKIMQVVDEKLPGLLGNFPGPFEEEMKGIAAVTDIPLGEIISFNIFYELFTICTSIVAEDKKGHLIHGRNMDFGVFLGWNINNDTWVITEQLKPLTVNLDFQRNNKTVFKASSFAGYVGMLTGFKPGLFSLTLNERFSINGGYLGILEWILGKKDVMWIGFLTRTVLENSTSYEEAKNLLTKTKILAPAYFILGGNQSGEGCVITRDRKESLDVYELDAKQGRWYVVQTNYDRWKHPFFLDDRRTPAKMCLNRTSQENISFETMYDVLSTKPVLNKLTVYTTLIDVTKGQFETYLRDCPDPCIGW
Method: (§1) Immunoblot analysis. Cells were seeded in 60mm plates as described above and treated accordingly. Cells were lifted by gently scraping the plates, washed once with ice cold PBS and then lysed in lysis buffer (PBS, 1% Triton X-100, 10% glycerol) containing protease inhibitors pepstatin A (0.5 μg/ml), leupeptin (0.5 μg/ml), aprotinin (5 μg/ml), and PMSF (100 μg/ml) for 10 minutes on ice. Insoluble material was removed by centrifugation at 14,000 rpm for 15 minutes at 4° C. The supernatants were then supplemented with SDS at a final concentration of 2% and stored at −80° C. Protein concentrations were determined using the DC Protein Assay (BioRad Laboratories; Hercules, CA, USA) according to the manufacturer's instructions. 50 μg of protein per sample (unless otherwise indicated) were separated on NuPAGE 4-12% Bis-Tris gels (Invitrogen; Carlsbad, CA, USA) and transferred to nitrocellulose membranes (BioRad). Following transfer, membranes were blocked for 1 hour at room temperature in Tris-buffered saline (TBS) containing 0.1% Tween-20 and 5% nonfat dry milk and incubated overnight at 4° C. with primary antibody at a dilution of 1:2,000(actin), 1:1,000(cytochrome c, COX IV, Bax, Bak, p53, p38, P-p38), 1:500(P-JNK, JNK), 1:250 (AC, p73), or 1:400(LAMP-1, cathepsin B). Overnight incubations were performed in 5% milk in TBS-Tween. Following overnight incubation, membranes were washed three times for 10 minutes each in TBS-Tween and incubated for 1 hour at room temperature with secondary antibody in 5% milk TBS-Tween at a dilution 1:5,000 (goat anti-mouse IgG) or 1:50,000 (goat anti-rabbit). Membranes were then washed three times more and incubated for 5 minutes at room temperature with Super Signal HRP substrate (Pierce Biotechnology Inc.; Rockford, IL, USA).

DU145 cells [1] = test: MTS cell viability assay in DU145 cells; assay type: cell-based, human; details: for reproduction of the apoptotic consequences of LCL204-induced lysosomal rupture: agents that strictly alter lysosomal pH
Method: MTS cytotoxicity assays for LCL204 treatments. Cell viability was determined using the CellTiter 96 AQueous One Solution Cell Proliferation Assay (Promega; Madison, Wis., USA). 1×10^4 cells per well were seeded in 96-well plates overnight. The next day media was removed and replaced with either 100 μl media with vehicle control or media containing LCL204 at desired concentrations. Assays were carried out according to manufacturer's instruction as previously described (60). For experiments using enzyme inhibitors and LCL204, media was removed and replaced with 50 μl media containing vehicle only or indicated inhibitor. Cells were pretreated 1 hour at 37° C. before adding 50 μl media containing vehicle, inhibitor only, LCL204 only (2× concentration), or a combination. The remainder of the assay was carried out as described above.

DU145 cells [2] = test: Cell death by MTS assay, ceramide analog combined with AdGFPFasL virus; assay type: cell-based, human
Method: LCL102, a ceramidase inhibitor, which acts to increasing intracellular ceramide levels by […], were tested in this system. This molecule was highly efficient at activating cell death in DU145 cells at nontoxic doses if combined with AdGFPFasL virus at MOIs achievable in vivo. DU145 cells growing in 96 well plates at 1×10^4 cells/well are treated with either media alone or LCL102 at 2 uM for 48 hours followed by AdGFPFasL for 24 hours at the MOI (5-80). Cell death is assayed by the MTS assay. At 2 uM LCL102 and 5MOI of virus, cell death is amplified 4-fold compared to LCL102 alone (FIG. 14).

lysosomes of DU145 cells = test: Lysosomal stability assay (LysoTracker Red); assay type: cell-based, human; details: DU145 cells, 1 hour; LCL204 10 μM, C6-ceramide 30 μM, B13 20 μM
Method: Lysosoinal stability assay. Lysosomal stability was measured using the fluorescent dye LysoTracker Red (LTR). Cells were seeded overnight in 60 mm plates. The next day, medium was removed and replaced with medium containing 200 nM LTR. Cells were loaded with LTR for 30 minutes at 37° C. LTR was removed and cells were washed once with PBS, then medium containing the treatment was added for the indicated time. After treatment, cells were lifted with trypsin, washed once in PBS, and resuspended in 0.5 mL growth medium. LTR fluorescence was measured using FACS analysis (564-606 nm) as above. A decrease in fluorescence intensity corresponded to an increase in lysosomal pH, and a minimum of 10,000 events were scored for each sample.

ASMase = molecular target: T2, ASMase (Homo sapiens, UniProt P17405); test: Acid sphingomyelinase activity assay; assay type: cell-based; details: DU145 cells, 2-hour LCL204 treatment
T2 construct: DU145 cells were lysed in 50 mM Tris (pH=7.4) using a probe sonicator; endogenous in cells; host or cells: DU145 (lysate of treated cells)
T2 sequence (P17405 47-631): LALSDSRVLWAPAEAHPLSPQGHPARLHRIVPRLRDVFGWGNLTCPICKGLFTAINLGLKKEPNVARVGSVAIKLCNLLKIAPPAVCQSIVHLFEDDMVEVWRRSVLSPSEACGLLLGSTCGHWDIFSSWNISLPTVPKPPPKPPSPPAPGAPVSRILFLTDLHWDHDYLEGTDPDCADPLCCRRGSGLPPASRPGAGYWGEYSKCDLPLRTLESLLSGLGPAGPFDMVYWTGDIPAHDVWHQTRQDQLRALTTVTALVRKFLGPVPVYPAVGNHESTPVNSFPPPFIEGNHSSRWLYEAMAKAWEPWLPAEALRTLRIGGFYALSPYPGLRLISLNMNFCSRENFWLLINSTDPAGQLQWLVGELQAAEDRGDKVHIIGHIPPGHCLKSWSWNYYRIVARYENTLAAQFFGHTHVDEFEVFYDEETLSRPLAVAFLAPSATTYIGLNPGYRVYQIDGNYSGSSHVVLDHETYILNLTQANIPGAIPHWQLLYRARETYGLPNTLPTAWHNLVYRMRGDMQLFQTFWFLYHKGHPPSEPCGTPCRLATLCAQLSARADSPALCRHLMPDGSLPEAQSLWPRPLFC
Method: Acid Sphingomyelinase Activity Assay. DU145 cells were lysed in 50 mM Tris (pH=7.4) using a probe sonicator. Cellular debris was removed after centrifugation at 3000×g for 10 minutes. Proteins (50 μg) were adjusted to a total volume of 100 μl and the reaction was started by adding 100 μl of the reaction mixture containing 1 mM EDTA, 250 mM sodium acetate (pH 5.0), 100 μM [choline-methyl-^14C] sphingomyelin and 0.1% Triton X. After incubation at 37° C. for one hour, the reaction was stopped by adding 1.5 ml of chloroform/methanol (2:1) and then 200 μl of water. Phases were separated by centrifugation at 2000×g for 5 minutes. Quantitation of the amount of released radioactive phosphocholine was determined by subjecting 400 μl of the upper phase to scintillation counting.

DU145 cells [3] = test: Effect of doxorubicin on apoptotic resistance of DU145 cells; assay type: cell-based, human; details: 0.2 μg/ml
Excerpt: The viruses described in Rubinchik et al. had been used under in vivo conditions to treat prostate cancer xenografts. […]. […] One of the limitations in PCa gene therapy is delivery of the therapeutic gene to every cell in the tumor. One way to overcome this is to amplify the response to the delivered gene by taking advantage of the bystander effect. For example, virally-expressed wild-type p53 is capable of inducing apoptosis in many types of cancer cells and is reported to have bystander activity by inducing localized FasL expression which recruits neutrophils infiltration that is believed to play a critical role in the bystander mechanism. In practice, the bystander effect, if activated , will result in regression of a solid tumor in spite of the physician's inability to deliver, by virus or liposome, a therapeutic gene to every cell. […] In the DU145 model of prostate cancer, the inventors determined that resistance to the induction of apoptosis through the Fas receptor signaling pathway is due to overexpression of apoptotic resistance genes including cFLIPs (Hyer et al., Cancer Biology and Therapy 1(4): 405-410, 2002). […] However, expression of apoptotic resistance genes in some cancers, including in the DU145 model, make the cells relatively insensitive to vesicle-mediated bystander activity. To overcome this, a number of different chemotherapeutic drugs and other small molecules were examined for their effect on apoptotic resistance mechanisms. […] This decrease in protein levels may be due to proteasomal degradation or a translational block. Under these conditions, a 20% increase in sensitivity of apoptotic vesicles is observed with 0.2 μg/ml doxorubicin. […]

PUMA = test: Immunoblot of PUMA; assay type: cell-based, human; details: PPC-1/pcDNA3 cells, 40 μM SP600125 with LCL204
Method: as §1

L929 cells = test: TNFα-induced PGE2 release; assay type: cell-based; details: TNFα-treated L929 mouse fibroblast cells, preliminary data
Excerpt: Interleukin-1 is a major inducer of inflammation and TNF is an important regulator of the reaction. Both cytokines can activate ceramidase, and thus inhibiting the activity of ceramidase can result in an anti-inflammatory effect. This may involve the prevention of the formation of sphingosine and sphingosine phosphate which have pro-inflammatory effects. Also, inhibition of ceramidase may prevent the hyperproliferation of immune cells that are important for inflammation. […] The release of PGE2 is also shown to be inhibited by D-(N-myristolyamino)-1-phenyl-1-propanol), D-MAPP, which is an inhibitor of one of the ceramidase. This observation may be important for inhibiting inflammatory reactions that occur in conditions, such as but not limited to rheumatoid arthritis. Thus, it is possible to treat or prevent inflammation by regulating the level of cellular ceramide using the method of the invention. As discussed above, ceramide level can be increased by administering compounds of the present invention that can inhibit mitochondrial ceramidase.

CC(C)CC(=O)N[C@H](C(=O)N[C@H](C(=O)N[C@@H](CC(C)C)[C@@H](O)CC(=O)N[C@@H](C)C(=O)N[C@@H](CC(C)C)[C@@H](O)CC(=O)O)C(C)C)C(C)C [pepstatin A] (Isovaleryl-VV[Sta]A[Sta]-OH)
effect of protease inhibitor pretreatment on LCL204-induced AC protein loss (acid ceramidase (AC)): no effect

CO/C1=C\C(C)=C\[C@@H](C)[C@@H](O)[C@@H](C)C/C(C)=C/C=C/[C@H](OC)[C@@H]([C@@H](C)[C@@H](O)[C@H](C)[C@@]2(O)C[C@@H](O)[C@H](C)[C@@H](C(C)C)O2)OC1=O [bafilomycin A1]
reproduction of the apoptotic consequences of LCL204-induced lysosomal rupture (DU145 cells [1]): could not be reproduced

CC(C)C[C@@H](C=O)NC(=O)[C@H](CC(C)C)NC(=O)[C@H](CC(C)C)NC(=O)OCc1ccccc1 [MG132] (Cbz-Leu-Leu-Leu-aldehyde)
effect of protease inhibitor pretreatment on LCL204-induced AC protein loss (acid ceramidase (AC)): blocked AC degradation

CCCCCCCCCCCCCCN[C@H](CO)[C@H](O)c1ccc([N+](=O)[O-])cc1 [LCL102, (1R,2R)-2-N-Tetradecylamino-1-(4-nitro-phenyl)-1,3-propandiol]
amplification of cell death compared to LCL102 alone (DU145 cells [2]; 2 uM for 48 hours, then AdGFPFasL 5MOI for 24 hours): 4 fold
increase of the ability of AdGFPFasL to kill tumor cells (DU145 cells [2]; in vitro, subtoxic doses): as much as ten-fold

Cl.N [NH4Cl]
reproduction of the apoptotic consequences of LCL204-induced lysosomal rupture (DU145 cells [1]): could not be reproduced

CCCCCCCCCCCCC/C=C/[C@@H](O)[C@H](CO)NC(=O)CCCCC [C6-ceramide, reference compound]
shift in LTR fluorescence (rise in lysosomal pH) (lysosomes of DU145 cells): did not have this effect

CCCCCCCCCCCCCC(=O)N[C@H](CO)[C@H](O)c1ccc([N+](=O)[O-])cc1 [B13, reference compound]
shift in LTR fluorescence (rise in lysosomal pH) (lysosomes of DU145 cells): did not have this effect

CCCNC(=O)[C@H]1O[C@@H]1C(=O)N[C@H](C(=O)N1CCC[C@H]1C(=O)OC)[C@@H](C)CC [CA074Me, reference compound]
effect of protease inhibitor pretreatment on LCL204-induced AC protein loss (acid ceramidase (AC)): blocked AC degradation
effect on LCL204-induced loss of ASMase activity (ASMase): loss of activity was blocked

COc1cccc2c1C(=O)c1c(O)c3c(c(O)c1C2=O)C[C@@](O)(C(=O)CO)C[C@@H]3O[C@H]1C[C@H](N)[C@H](O)[C@H](C)O1 [Doxorubicin]
cFLIP protein expression (DU145 cells [3]): decreases expression of cFLIP protein
increase in sensitivity of apoptotic vesicles (DU145 cells [3]): 20%
toxicity to DU145 cells (DU145 cells [3]): toxic to DU145 cells at 48-72 hours

Oc1c2ccccc2c2c3c(cccc13)N=N2 [SP600125, reference compound]
time until which LCL204-induced PUMA induction was delayed (PUMA): approximately 6 hours

COC(=O)C[C@H](NC(=O)[C@H](C)NC(=O)[C@@H](NC(=O)OCc1ccccc1)C(C)C)C(=O)CF [zVAD-fmk] (Cbz-Val-Ala-Asp(OMe)-CH2F)
LCL204-mediated cell death after pre-treatment with caspase inhibitor (DU145 cells [1]; pre-treated one hour, then LCL204 24 hours, especially below 15 μM LCL204): cell death was substantially reduced
effect of protease inhibitor pretreatment on LCL204-induced AC protein loss (acid ceramidase (AC)): blocked AC degradation

CCCCCCCCCCCCCC(=O)NC(C)C(O)c1ccccc1 [D-MAPP]
release of PGE2 (L929 cells): inhibited
